Assay [1] relates to SOCE (store operated calcium entry) in CHO cells. Kind of assay: Assay of SOCE (store operated calcium entry)-inhibiting action. It is filed as cell-based, Chinese hamster. The following applies: CHO cells, thapsigargin; for inhibition at 10 µM / inhibition at 30 µM / inhibition at 100 µM: Cricetulus griseus, CHO, read-out: SOCE level (percentage of inhibition). The gist of the method:
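CHO cells in calcium-free BSS received compound, then 1 μM thapsigargin 2 min later to deplete stores; after 9 min, 2 mM calcium chloride (final) added. Percent inhibition of the rise in intracellular calcium determined at various compound concentrations.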

The test system of assay [2] is IICR (IP3 induced calcium release) in CHO cells. Kind of assay: Assay of IICR (IP3 induced calcium release)-inhibiting action. It is filed as cell-based, Chinese hamster. The following applies: CHO cells, 10 μM ATP; for inhibition at 10 µM / inhibition at 30 µM / inhibition at 100 µM: Cricetulus griseus, CHO, read-out: IICR level (percentage of inhibition). The gist of the method:
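CHO cell medium replaced with calcium-containing BSS; compound added 1 min later, then 10 μM ATP after a further 2 min. Percent inhibition of the ATP-evoked rise in intracellular calcium determined at each compound concentration.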

Experimental findings from patent US8937091B2 (Japan Science and Technology Agency, priority 2009, dated 2015) are described below.

The inhibition is the percentage by which the read-out fell short of the control. Consider `O=C(CCN(CCO)Cc1ccccc1)c1cccs1` [Example 245, 2-(N-benzyl-2-hydroxyethyl)aminoethyl-2-thiophenylketone], for which the inhibition at 10 µM in assay [1] (test compound 10 μmol) and in assay [2] (test compound 10 μmol) was 0% throughout. In addition, the inhibition at 30 µM in assay [1] (test compound 30 μmol) and in assay [2] (test compound 30 μmol) was 0% throughout. In addition, the inhibition at 100 µM in assay [1] (test compound 100 μmol) and in assay [2] (test compound 100 μmol) was 0% throughout.

`CC(C)(C)N(CCO)CCC(=O)c1cccs1` [Example 246, 2-(N-t-butyl-2-hydroxyethyl)aminoethyl-2-thiophenylketone]: the inhibition at 10 µM in assay [1] (test compound 10 μmol) came to 0%; in assay [2] (test compound 10 μmol), 10%. Moreover, the inhibition at 30 µM in assay [1] (test compound 30 μmol) and in assay [2] (test compound 30 μmol) was 0% throughout. Further, the inhibition at 100 µM in assay [1] (test compound 100 μmol) and in assay [2] (test compound 100 μmol) was 0% in each case.

In the case of `CCCCN(CCO)CCC(=O)c1cccs1` [Example 247, 2-(N-butyl-2-hydroxyethyl)aminoethyl-2-thiophenylketone], the inhibition at 10 µM in assay [1] (test compound 10 μmol) worked out at 0%; in assay [2] (test compound 10 μmol) it was 10%. The inhibition at 30 µM in assay [1] (test compound 30 μmol) and in assay [2] (test compound 30 μmol) was 0% each time. In addition, the inhibition at 100 µM in assay [1] (test compound 100 μmol) and in assay [2] (test compound 100 μmol) was 0% in each case.

Turning to `CN(CCC(=O)c1cccnc1)Cc1ccccc1` [Example 248, 2-(N-benzylmethyl)aminoethyl-3-pyridylketone], the inhibition at 10 µM in assay [1] (test compound 10 μmol) and in assay [2] (test compound 10 μmol) was 0% throughout. The inhibition at 30 µM in assay [1] (test compound 30 μmol) is 0%; in assay [2] (test compound 30 μmol), 10%. For the same compound, the inhibition at 100 µM was 0% in assay [1] (test compound 100 μmol) and 80% in assay [2] (test compound 100 μmol).

Turning to `O=C(CCN(CCO)CCO)c1ccncc1` [Example 249, 2-(N-bis-2-hydroxyethyl)aminoethyl-4-pyridylketone], the inhibition at 10 µM in assay [1] (test compound 10 μmol) and in assay [2] (test compound 10 μmol) was 0% throughout. Moreover, the inhibition at 30 µM in assay [1] (test compound 30 μmol) came out at 0%; in assay [2] (test compound 30 μmol), 60%. The figures for the inhibition at 100 µM in assay [1] (test compound 100 μmol) and in assay [2] (test compound 100 μmol) were 20% and 80%, respectively.

As for `CCCCN(CCO)CCC(=O)c1ccccn1` [Example 250], the inhibition at 10 µM in assay [1] (test compound 10 μmol) and in assay [2] (test compound 10 μmol) was 0% each time. Also, the results for the inhibition at 30 µM in assay [1] (test compound 30 μmol) and in assay [2] (test compound 30 μmol) were 0% and 10%, respectively. Besides, the inhibition at 100 µM was determined as 0% in assay [1] (test compound 100 μmol) and 20% in assay [2] (test compound 100 μmol).

Take `CN(CCO)CCC(=O)c1ccccn1` [Example 251, 2-(N-methyl-2-hydroxyethyl)aminoethyl-2-pyridylketone]: the inhibition at 10 µM in assay [1] (test compound 10 μmol) and in assay [2] (test compound 10 μmol) was 0% throughout. Moreover, the inhibition at 30 µM in assay [1] (test compound 30 μmol) and in assay [2] (test compound 30 μmol) was 0% throughout. Further, the inhibition at 100 µM in assay [1] (test compound 100 μmol) and in assay [2] (test compound 100 μmol) was 0% throughout.

Take `CCc1nccnc1C(=O)CCN(CCO)C(C)C` [Example 252, 2-(N-isopropyl-2-hydroxyethyl)aminoethyl-3-ethyl-2-pyrazylketone]: the “SOCE level (percentage of inhibition)” value in assay [1] (test compound 10 μmol), in assay [1] (test compound 30 μmol) and in assay [1] (test compound 100 μmol) was 0% in each case. Besides, the “IICR level (percentage of inhibition)” value in assay [2] (test compound 10 μmol) was 0%; in assay [2] (test compound 30 μmol), 0%; in assay [2] (test compound 100 μmol) it was 80%.

As to `CCN(CCC(=O)c1cccs1)Cc1ccccc1` [Example 253, 2-(N-benzylethyl)aminoethyl-2-thiophenylketone], the inhibition at 10 µM in assay [1] (test compound 10 μmol) amounted to 0%; in assay [2] (test compound 10 μmol), 20%. Also, the inhibition at 30 µM came to 10% in assay [1] (test compound 30 μmol) and 0% in assay [2] (test compound 30 μmol). Besides, the inhibition at 100 µM came out at 40% in assay [1] (test compound 100 μmol) and 20% in assay [2] (test compound 100 μmol).

Regarding `CN(CCO)CCC(=O)c1ccsc1` [Example 254, 2-(N-2-hydroxyethylmethyl)aminoethyl-3-thiophenylketone], the inhibition at 10 µM in assay [1] (test compound 10 μmol) and in assay [2] (test compound 10 μmol) was 0% in each case. Further, the inhibition at 30 µM in assay [1] (test compound 30 μmol) was 0%; in assay [2] (test compound 30 μmol), 30%. The inhibition at 100 µM turned out to be 0% in assay [1] (test compound 100 μmol) and 40% in assay [2] (test compound 100 μmol).

Turning to `CCCCN(CCO)CCC(=O)c1ccc(C)o1` [Example 255, 2-(N-2-hydroxyethylbutyl)aminoethyl-5-methyl-2-furylketone], the inhibition at 10 µM in assay [1] (test compound 10 μmol) and in assay [2] (test compound 10 μmol) was 0% in each case. Besides, the results for the inhibition at 30 µM in assay [1] (test compound 30 μmol) and in assay [2] (test compound 30 μmol) were 0% and 30%, respectively. Moreover, the inhibition at 100 µM in assay [1] (test compound 100 μmol) is 0%; in assay [2] (test compound 100 μmol), 50%.

For `CC(C)(C)N(CCC(=O)c1nccs1)Cc1ccccc1` [Example 256, 2-(N-benzyl-t-butyl)aminoethyl-2-thiazolylketone], the inhibition at 10 µM is 0% in assay [1] (test compound 10 μmol) and 50% in assay [2] (test compound 10 μmol). In addition, the figures for the inhibition at 30 µM in assay [1] (test compound 30 μmol) and in assay [2] (test compound 30 μmol) were 0% and 90%, respectively. In addition, the values for the inhibition at 100 µM in assay [1] (test compound 100 μmol) and in assay [2] (test compound 100 μmol) were 10% and 80%, respectively.

With `Cc1nc(C)c(C(=O)CCN(CCO)C(C)C)s1` [Example 257, 2-(N-isopropyl-2-hydroxyethyl)aminoethyl-2,4-dimethyl-5-thiazolylketone], the inhibition at 10 µM in assay [1] (test compound 10 μmol) and in assay [2] (test compound 10 μmol) was 0% in each case. For the same compound, the inhibition at 30 µM in assay [1] (test compound 30 μmol) and in assay [2] (test compound 30 μmol) was 0% in each case. The inhibition at 100 µM in assay [1] (test compound 100 μmol) worked out at 0%; in assay [2] (test compound 100 μmol) it was 20%.

In the case of `CN(CCC(=O)c1nccs1)Cc1ccccc1` [Example 258, 2-(N-benzylmethyl)aminoethyl-2-thiazolylketone], the figures for the inhibition at 10 µM in assay [1] (test compound 10 μmol) and in assay [2] (test compound 10 μmol) were 0% and 20%, respectively. The inhibition at 30 µM in assay [1] (test compound 30 μmol) and in assay [2] (test compound 30 μmol) was 0% in each case. The inhibition at 100 µM in assay [1] (test compound 100 μmol) came out at 0%; in assay [2] (test compound 100 μmol) it was 20%.

`CN(CCO)CCC(=O)c1cccnc1` [Example 259, 2-(N-2-hydroxyethylmethyl)aminoethyl-3-pyridylketone]: the inhibition at 10 µM in assay [1] (test compound 10 μmol) and in assay [2] (test compound 10 μmol) was 0% each time. Further, the inhibition at 30 µM in assay [1] (test compound 30 μmol) and in assay [2] (test compound 30 μmol) was 0% each time. For the same compound, the results for the inhibition at 100 µM in assay [1] (test compound 100 μmol) and in assay [2] (test compound 100 μmol) were 0% and 20%, respectively.

Regarding `CCc1nccnc1C(=O)CCN(CCO)CCO` [Example 260, 2-(N-bis-hydroxyethyl)aminoethyl-3-ethyl-2-pyrazylketone], the inhibition at 10 µM worked out at 0% in assay [1] (test compound 10 μmol) and 20% in assay [2] (test compound 10 μmol). For the same compound, the inhibition at 30 µM in assay [1] (test compound 30 μmol) and in assay [2] (test compound 30 μmol) was 0% in each case. For the same compound, the values for the inhibition at 100 µM in assay [1] (test compound 100 μmol) and in assay [2] (test compound 100 μmol) were 0% and 20%, respectively.

`CN(CCO)CCC(=O)c1ccncc1` [Example 262, 2-(N-2-hydroxyethylmethyl)aminoethyl-4-pyridylketone]: the inhibition at 10 µM in assay [1] (test compound 10 μmol) and in assay [2] (test compound 10 μmol) was 0% throughout. Besides, the inhibition at 30 µM in assay [1] (test compound 30 μmol) and in assay [2] (test compound 30 μmol) was 0% throughout. Also, the inhibition at 100 µM in assay [1] (test compound 100 μmol) was 0%; in assay [2] (test compound 100 μmol), 70%.

As for `Cc1csc(C(=O)CCN(Cc2ccccc2)C(C)C)n1` [Example 263, 2-(N-benzylisopropyl)aminoethyl-4-methyl-2-thiazolylketone], the inhibition at 10 µM in assay [1] (test compound 10 μmol) and in assay [2] (test compound 10 μmol) was 0% throughout. The inhibition at 30 µM in assay [1] (test compound 30 μmol) and in assay [2] (test compound 30 μmol) was 0% throughout. Also, the values for the inhibition at 100 µM in assay [1] (test compound 100 μmol) and in assay [2] (test compound 100 μmol) were 30% and 70%, respectively.

For `CCCCN(CCO)CCC(=O)c1nc(C)cs1` [Example 264, 2-(N-butyl-2-hydroxyethyl)aminoethyl-4-methyl-2-thiazolylketone], the inhibition at 10 µM in assay [1] (test compound 10 μmol) and in assay [2] (test compound 10 μmol) was 0% in each case. Further, the inhibition at 30 µM in assay [1] (test compound 30 μmol) and in assay [2] (test compound 30 μmol) was 0% each time. For the same compound, the values for the inhibition at 100 µM in assay [1] (test compound 100 μmol) and in assay [2] (test compound 100 μmol) were 10% and 70%, respectively.

`Cc1csc(C(=O)CCN(C)Cc2ccccc2)n1` [Example 265, 2-(N-benzylmethyl)aminoethyl-4-methyl-2-thiazolylketone]: the inhibition at 10 µM was 10% in assay [1] (test compound 10 μmol) and 0% in assay [2] (test compound 10 μmol). For the same compound, the inhibition at 30 µM turned out to be 10% in assay [1] (test compound 30 μmol) and 0% in assay [2] (test compound 30 μmol). Besides, the inhibition at 100 µM in assay [1] (test compound 100 μmol) turned out to be 10%; in assay [2] (test compound 100 μmol), 70%.

Take `CC(C)N(CCC(=O)c1ccc(Cl)s1)Cc1ccccc1` [Example 266, 2-(N-benzylisopropyl)aminoethyl-5-chloro-2-thiophenylketone]: the inhibition at 10 µM in assay [1] (test compound 10 μmol) and in assay [2] (test compound 10 μmol) was 0% throughout. Further, the inhibition at 30 µM was found to be 20% in assay [1] (test compound 30 μmol) and 0% in assay [2] (test compound 30 μmol). Further, the inhibition at 100 µM in assay [1] (test compound 100 μmol) was determined as 40%; in assay [2] (test compound 100 μmol) it was 70%.

Turning to `CC(C)N(CCO)CCC(=O)c1ccc(Cl)s1` [Example 267, 2-(N-2-hydroxyethylisopropyl)aminoethyl-5-chloro-2-thiophenylketone], the inhibition at 10 µM in assay [1] (test compound 10 μmol) and in assay [2] (test compound 10 μmol) was 0% each time. Further, the inhibition at 30 µM in assay [1] (test compound 30 μmol) and in assay [2] (test compound 30 μmol) was 0% each time. Moreover, the inhibition at 100 µM is 0% in assay [1] (test compound 100 μmol) and 70% in assay [2] (test compound 100 μmol).
